Usually pIC50 stands for −log10 of the IC50, conventionally taken in molar units. Read a low pIC50 as a high IC50.

pIC50: −log10 of the molar value. Where only a bound is given, the exact number is not on record here.

This is an account of results in patent US20260242360A1, “Novel Compound, and Pharmaceutical Composition for Prevention or Treatment of Cancer or Tumors Comprising Same” (Daewoong Pharmaceutical Co., Ltd., priority 2023, published 2026).

Common to all, as to format: cell-based
Assay [1] concerns transcription factor TEAD. As to the kind of experiment: Activity inhibition test of transcription factor TEAD (ONE-Glo luciferase assay, Hippo Pathway TEAD reporter-MCF7 cell line). To be noted: Homo sapiens; TEAD Reporter-MCF7 cells, 24 hours treatment, luciferase luminescence. How it is done: The transcription factor TEAD activity of the compounds prepared in Examples was measured by the ONE-Glo™ Luciferase assay (Promega, Catalog #E6110) method using the Hippo Pathway TEAD reporter-MCF7 recombinant cell line (BPS Bioscience, Catalog #60618).
Specifically, the TEAD Reporter-MCF7 cell line contains the firefly luciferase gene whose expression is regulated under the control of TEAD response elements in the MCF7, which is a human breast cancer cell line. In the cell line, a non-phosphorylated YAP/TAZ exists in the nucleus in a non-stressed condition, which continuously induces expression of the luciferase reporter.
TEAD Reporter-MCF7 cells were prepared in 100 μL of cell culture medium (MEM medium, 10% FBS, 1% P/S, 400 μg/mL Geneticin, 1% […], 1 mM NA pyruvate, 10 μg/mL Insulin) in a white clear bottom 96-well microplate. The prepared plate was incubated in a 5% CO2 incubator at 37° C. for 24 hours, and then the previously prepared compounds of Examples were finally treated at concentrations of 0.0005, 0.005, 0.05, 0.5 and 5 μM, which were repeated three times for all treatment solutions. The plates treated with the compounds of Examples were incubated in a 5% CO2 incubator at 37° C. for 24 hours. 100 μL/well of the substrate aqueous solution containing luciferin was added to a white clear-bottom 96 well microplate, thereby initiating an enzyme reaction. The reaction was performed at room temperature for 5 minutes, and the luminescence (integration time 1000 ms) was measured using a Flexstation3 multi-mode microplate reader. In accordance with the instructions for the ONE-Glo™ Luciferase Assay, the luciferase enzyme activity, which represents the activity of the transcription factor TEAD, was measured by a chemiluminescence method, and the inhibitory activity of the compound according to the present disclosure was calculated. The results of each compound were analyzed using Microsoft Excel, and the IC50 values were calculated by GraphPad Prism software.

Assay [2] has as its system NCI-H28 cells. As to the kind of experiment: Cell growth inhibition test (CellTiter-Glo), NCI-H28. To be noted: Homo sapiens, NCI-H28 cell line. The method, then: (§1) The cell growth for the compounds prepared in Examples was measured by CellTiter-Glo® Luminescednt Cell Viability (Promega, Catalog #G7571) method using NCI-H226 (addexbio), NCI-H28 (Korea Cell Line Bank) cell lines. This evaluation method is a method in which when luciferase enzyme is activated by ATP flowing out from living cells, it reacts with a luciferin substrate, and the enzyme activity at this time is measured to confirm cell viability.
(§2) Specifically, NCI-H226, and NCI-H28 cells were prepared in 100 μL of cell culture medium (RPMI medium, 10% FBS, 1% P/S, 4.5 g/L D-Glucose, 2.383 g/L HEPES Buffer, L-Glutamine, 1.5 g/L Sodium Bicarbonate, 110 mg/L Sodium pyruvate) in a white clear bottom 96-well microplate. The prepared plate was incubated in a 5% CO2 incubator at 37° C. for 24 hours, and then the previously prepared compounds of Examples were finally treated at concentrations of 0.0005, 0.005, 0.05, 0.5 and 5 μM, which was repeated three times for all treatment solutions.
(§3) The plates treated with the compounds of Examples were incubated in a 5% CO2 incubator at 37° C. 100 μL/well of the substrate aqueous solution containing luciferin was added to a white clear-bottom 96 well microplate, thereby initiating an enzyme reaction. The reaction was performed at room temperature in the dark for 10 minutes, and the luminescence was measured using a Flexstation3 multi-mode microplate reader. In accordance with the instructions for the CellTiter-Glo™ Luminescednt Cell Viability, the luciferase enzyme activity, which represents the amount of ATP, was measured by a chemiluminescence method, and the inhibitory activity of the compounds according to the present disclosure was calculated. The results of each compound were analyzed using Microsoft Excel, and the IC50 values were calculated using GraphPad Prism software.
Background: In ATP-based viability assays light output follows the ATP content of the culture.

The subject of assay [3] is NCI-H226 cells. Kind of assay: Cell growth inhibition test (CellTiter-Glo), NCI-H226. To be noted: Homo sapiens, NCI-H226 cell line. How it is done: as §1, §2, §3

With `C=CC(=O)Nc1cc(-c2cn(C)cn2)c2[nH]c(-c3cccc(F)c3)cc2c1` [Example 42, N-(2-(3-fluorophenyl)-7-(1-methyl-1H-imidazol-4-yl)-1H-indol-5-yl)acrylamide], the pIC50 in assay [1] was 7.01; in assay [2], 5.68; in assay [3], 8.35.

As for `Cn1cnc(-c2cc(C(=O)O)cc3cc(-c4ccc(F)c(F)c4)[nH]c23)c1` [Example 43, 2-(3,4-difluorophenyl)-7-(1-methyl-1H-imidazol-4-yl)-1H-indole-5-carboxylic acid], the values for the pIC50 in assay [1], in assay [2] and in assay [3] were 7.27, under 5.30 and 8.11, respectively.

As to `C=CC(=O)Nc1cc(-c2cn(C)cn2)c2[nH]c(-c3ccc(F)c(Cl)c3)cc2c1` [Example 44, N-(2-(3-chloro-4-fluorophenyl)-7-(1-methyl-1H-imidazol-4-yl)-1H-indol-5-yl)acrylamide], the pIC50 in assay [1] is 7.43; in assay [2], 5.72; in assay [3] it was 7.66.

In the case of `C=CC(=O)Nc1cc(-c2cn(C)cn2)c2[nH]c(-c3cc(F)c(Cl)c(F)c3)cc2c1` [Example 46, N-(2-(4-chloro-3,5-difluorophenyl)-7-(1-methyl-1H-imidazol-4-yl)-1H-indol-5-yl)acrylamide], the negative logarithm of the IC50 (pIC50) was 7.05 in assay [1], 5.87 in assay [2] and 7.10 in assay [3].

`C=CC(=O)Nc1cc(-c2cn(CC)cn2)c2[nH]c(-c3cc(F)c(F)c(F)c3)cc2c1` [Example 50, N-(7-(1-ethyl-1H-imidazol-4-yl)-2-(3,4,5-trifluorophenyl)-1H-indol-5-yl)acrylamide]: the results for the pIC50 in assay [1], in assay [2] and in assay [3] were 7.57, under 5.30 and 7.81, respectively.

Regarding `C=CC(=O)Nc1cc(-c2cn(CC)cn2)c2[nH]c(-c3ccc(F)cc3)cc2c1` [Example 51, N-(7-(1-ethyl-1H-imidazol-4-yl)-2-(4-fluorophenyl)-1H-indol-5-yl)acrylamide], the pIC50 is 7.32 in assay [1], 5.60 in assay [2] and 8.12 in assay [3].

As for `C=CC(=O)Nc1cc(-c2cn(C)cn2)c2[nH]c(-c3ccc(Br)cc3)cc2c1` [Example 52, N-(2-(4-bromophenyl)-7-(1-methyl-1H-imidazol-4-yl)-1H-indole-5-yl)acrylamide], the pIC50 in assay [1] is 6.46; in assay [2], 6.06; in assay [3] it was 7.24.
